Measured values taken from PubChem BioAssay AID2060895 (Molecular Pharmacology Branch, DTP, NCI, 2025).

Test system: PDC 899932-113-R3-J6 complex spheroid viability
Test: Anticancer human tumor 899932-113-R3-J6-PDC patient-derived melanoma cell line growth inhibition [RAS]
Conditions: for IC50: curve of first compound; for viability, T/C: stronger effect = lower value
Procedure, shortened: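 Multi-cell-type spheroids: tumor cells plus HUVEC endothelial cells and mesenchymal stem cells. RAS-pathway inhibitors were combined with targeted agents, each dosed in half-log steps down from clinical Cmax, or from 10 microM when Cmax was unknown.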
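Wherever viability, T/C is given: spheroids exposed to agents for seven days before readout; 100% = DMSO vehicle control wells.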

Question: What does the source list for `CCc1c2c(nc3ccc(O)cc13)-c1cc3c(c(=O)n1C2)COC(=O)[C@]3(O)CC` + C=CC(=O)N1CCN(c2nc(OCC3CCCN3C)nc3c(F)c(-c4nc(N)cc(C)c4C(F)(F)F)c(Cl)cc23)C(C)C1?
Answer: IC50 (second compound 0.00316 µM): 0.0196 µM; IC50 (second compound 0.01 µM): 0.0243 µM; IC50 (second compound 0.0316 µM): 0.0331 µM; IC50 (second compound 0.1 µM): 0.0303 µM; IC50 (second compound 0.316 µM): 0.0294 µM; IC50 (second compound 1 µM): 0.0318 µM; viability, T/C (second compound 0.00316 µM, first compound 0.000949 µM): 89.8%; viability, T/C (second compound 0.00316 µM, first compound 0.003 µM): 65.9%; viability, T/C (second compound 0.00316 µM, first compound 0.00949 µM): 57.6%; viability, T/C (second compound 0.00316 µM, first compound 0.03 µM): 48.6%; viability, T/C (second compound 0.00316 µM, first compound 0.0949 µM): 39.2%; viability, T/C (second compound 0.00316 µM, first compound 0.3 µM): 36%; viability, T/C (second compound 0.01 µM, first compound 0.000949 µM): 92.8%; viability, T/C (second compound 0.01 µM, first compound 0.003 µM): 67.4%; viability, T/C (second compound 0.01 µM, first compound 0.00949 µM): 59.2%; viability, T/C (second compound 0.01 µM, first compound 0.03 µM): 50.2%; viability, T/C (second compound 0.01 µM, first compound 0.0949 µM): 43%; viability, T/C (second compound 0.01 µM, first compound 0.3 µM): 36.4%; viability, T/C (second compound 0.0316 µM, first compound 0.000949 µM): 93.5%; viability, T/C (second compound 0.0316 µM, first compound 0.003 µM): 78%; viability, T/C (second compound 0.0316 µM, first compound 0.00949 µM): 59.9%; viability, T/C (second compound 0.0316 µM, first compound 0.03 µM): 51%; viability, T/C (second compound 0.0316 µM, first compound 0.0949 µM): 43.9%; viability, T/C (second compound 0.0316 µM, first compound 0.3 µM): 30.3%; viability, T/C (second compound 0.1 µM, first compound 0.000949 µM): 102%; viability, T/C (second compound 0.1 µM, first compound 0.003 µM): 69.5%; viability, T/C (second compound 0.1 µM, first compound 0.00949 µM): 61.3%; viability, T/C (second compound 0.1 µM, first compound 0.03 µM): 55.7%; viability, T/C (second compound 0.1 µM, first compound 0.0949 µM): 43.2%; viability, T/C (second compound 0.1 µM, first compound 0.3 µM): 38.4%; viability, T/C (second compound 0.316 µM, first compound 0.000949 µM): 95.6%; viability, T/C (second compound 0.316 µM, first compound 0.003 µM): 71.7%; viability, T/C (second compound 0.316 µM, first compound 0.00949 µM): 58.6%; viability, T/C (second compound 0.316 µM, first compound 0.03 µM): 54.1%; viability, T/C (second compound 0.316 µM, first compound 0.0949 µM): 43%; viability, T/C (second compound 0.316 µM, first compound 0.3 µM): 34.4%; viability, T/C (second compound 1 µM, first compound 0.000949 µM): 96.5%; viability, T/C (second compound 1 µM, first compound 0.003 µM): 75%; viability, T/C (second compound 1 µM, first compound 0.00949 µM): 59.9%; viability, T/C (second compound 1 µM, first compound 0.03 µM): 51.7%; viability, T/C (second compound 1 µM, first compound 0.0949 µM): 44.6%; viability, T/C (second compound 1 µM, first compound 0.3 µM): 34.3%

Question: For `Nc1ccn(C2OC(CO)C(O)C2(F)F)c(=O)n1` (centres undefined) + C=CC(=O)N1CCN(c2nc(OCC3CCCN3C)nc3c(F)c(-c4nc(N)cc(C)c4C(F)(F)F)c(Cl)cc23)C(C)C1, which IC50 (second compound 0.00316 µM) is on record?
Answer: The IC50 was 0.0194 µM.

Question: And the IC50 (second compound 0.01 µM)?
Answer: Its IC50 is 0.0193 µM.

Question: And the IC50 (second compound 0.0316 µM)?
Answer: Its IC50 is 0.0212 µM.

Question: What about the IC50 (second compound 0.1 µM) of the same compound?
Answer: The IC50 was 0.0222 µM.

Question: And the IC50 (second compound 0.316 µM)?
Answer: The IC50 was 0.0191 µM.

Question: What about the IC50 (second compound 1 µM) of the same compound?
Answer: Its IC50 is 0.0174 µM.

Question: And the viability, T/C (second compound 0.00316 µM, first compound 0.00316 µM)?
Answer: The viability, T/C was 98.2%.

Question: And the viability, T/C (second compound 0.00316 µM, first compound 0.01 µM)?
Answer: The viability, T/C was 68.9%.

Question: And the viability, T/C (second compound 0.00316 µM, first compound 0.0316 µM)?
Answer: The viability, T/C was 37.3%.

Question: What about the viability, T/C (second compound 0.00316 µM, first compound 0.1 µM) of the same compound?
Answer: The viability, T/C was 20.8%.

Question: What about the viability, T/C (second compound 0.00316 µM, first compound 0.316 µM) of the same compound?
Answer: The viability, T/C was 23.6%.

Question: And the viability, T/C (second compound 0.00316 µM, first compound 1 µM)?
Answer: The viability, T/C was 25.7%.

Question: And the viability, T/C (second compound 0.01 µM, first compound 0.00316 µM)?
Answer: The viability, T/C was 97.5%.

Question: What about the viability, T/C (second compound 0.01 µM, first compound 0.01 µM) of the same compound?
Answer: The viability, T/C was 73.5%.

Question: What about the viability, T/C (second compound 0.01 µM, first compound 0.0316 µM) of the same compound?
Answer: Its viability, T/C is 32.8%.

Question: And the viability, T/C (second compound 0.01 µM, first compound 0.1 µM)?
Answer: The viability, T/C was 20%.

Question: And the viability, T/C (second compound 0.01 µM, first compound 0.316 µM)?
Answer: The viability, T/C was 24.9%.

Question: What about the viability, T/C (second compound 0.01 µM, first compound 1 µM) of the same compound?
Answer: Its viability, T/C is 22.6%.

Question: And the viability, T/C (second compound 0.0316 µM, first compound 0.00316 µM)?
Answer: The viability, T/C was 99.3%.

Question: And the viability, T/C (second compound 0.0316 µM, first compound 0.01 µM)?
Answer: The viability, T/C was 74.4%.

Question: What about the viability, T/C (second compound 0.0316 µM, first compound 0.0316 µM) of the same compound?
Answer: The viability, T/C was 38.5%.

Question: And the viability, T/C (second compound 0.0316 µM, first compound 0.1 µM)?
Answer: The viability, T/C was 18.3%.

Question: And the viability, T/C (second compound 0.0316 µM, first compound 0.316 µM)?
Answer: The viability, T/C was 20.9%.

Question: What about the viability, T/C (second compound 0.0316 µM, first compound 1 µM) of the same compound?
Answer: The viability, T/C was 24%.

Question: And the viability, T/C (second compound 0.1 µM, first compound 0.00316 µM)?
Answer: Its viability, T/C is 106%.

Question: What about the viability, T/C (second compound 0.1 µM, first compound 0.01 µM) of the same compound?
Answer: Its viability, T/C is 86%.

Question: What about the viability, T/C (second compound 0.1 µM, first compound 0.0316 µM) of the same compound?
Answer: The viability, T/C was 34%.

Question: And the viability, T/C (second compound 0.1 µM, first compound 0.1 µM)?
Answer: Its viability, T/C is 23.8%.

Question: What about the viability, T/C (second compound 0.1 µM, first compound 0.316 µM) of the same compound?
Answer: The viability, T/C was 21.7%.

Question: And the viability, T/C (second compound 0.1 µM, first compound 1 µM)?
Answer: The viability, T/C was 23.2%.

Question: And the viability, T/C (second compound 0.316 µM, first compound 0.00316 µM)?
Answer: The viability, T/C was 98.9%.

Question: What about the viability, T/C (second compound 0.316 µM, first compound 0.01 µM) of the same compound?
Answer: Its viability, T/C is 73%.

Question: And the viability, T/C (second compound 0.316 µM, first compound 0.0316 µM)?
Answer: The viability, T/C was 32.4%.

Question: What about the viability, T/C (second compound 0.316 µM, first compound 0.1 µM) of the same compound?
Answer: Its viability, T/C is 22.6%.

Question: What about the viability, T/C (second compound 0.316 µM, first compound 0.316 µM) of the same compound?
Answer: The viability, T/C was 24.1%.

Question: What about the viability, T/C (second compound 0.316 µM, first compound 1 µM) of the same compound?
Answer: The viability, T/C was 26.3%.

Question: And the viability, T/C (second compound 1 µM, first compound 0.00316 µM)?
Answer: Its viability, T/C is 97.1%.

Question: And the viability, T/C (second compound 1 µM, first compound 0.01 µM)?
Answer: Its viability, T/C is 64.2%.

Question: What about the viability, T/C (second compound 1 µM, first compound 0.0316 µM) of the same compound?
Answer: Its viability, T/C is 35.5%.

Question: And the viability, T/C (second compound 1 µM, first compound 0.1 µM)?
Answer: Its viability, T/C is 21.9%.

Question: What about the viability, T/C (second compound 1 µM, first compound 0.316 µM) of the same compound?
Answer: Its viability, T/C is 17.9%.

Question: And the viability, T/C (second compound 1 µM, first compound 1 µM)?
Answer: The viability, T/C was 24.3%.
